Data reported in patent publication US10813891B2, “Method of inhibiting chronification of pain” (priority 2011, dated 2020).

System: CCI-ION rats
Assay type: in vivo, rat
Protocol: Male Sprague-Dawley rats (Charles River Laboratories, L'Arbresle, France), weighing 150-200 g on arrival, were used. Animals were maintained under controlled environmental conditions (22±1° C., 60% relative humidity, 12 h/12 h light/dark cycle, food and water ad libitum) starting from reception in the laboratory, for at least 1 week before any intervention or treatment and thereafter, until euthanasia.
Rats were anaesthetized with sodium pentobarbital (50 mg/kg i.p.). Unilateral CCI-ION was performed under direct visual control using a Zeiss microscope (10-25×). Briefly, the head was fixed in a Horsley-Clarke stereotaxic frame and a midline scalp incision was made, exposing skull and nasal bone. The edge of the orbit, formed by the maxillary, frontal, lacrimal, and zygomatic bones, was dissected free. The orbital contents were then gently deflected to give access to the infraorbital nerve which was dissected free at its most rostral extent in the orbital cavity, just caudal to the infraorbital foramen. Only 5 mm of the nerve could be freed, providing the space for placement of two chromic catgut (5-0) ligations tied loosely (with about 2 mm spacing) around it. […] Finally, scalp incision was closed using silk sutures (4-0). In sham-operated rats, the ION was exposed using the same procedure, but was not ligated.
Tapentadol (1, 3 and 10 mg/kg i.p.), reboxetine (10 mg/kg i.p.), morphine (1 and 3 mg/kg s.c.) or their vehicle (0.9% NaCl) were injected acutely 14 days after surgery, when allodynia/hyperalgesia reached a plateau in both CCI-SN and CCI-ION rats. Behavioral tests were performed at various times for up to 4 h after injection. In drug association procedure, reboxetine or saline was administered 15 min before morphine or saline.
Subchronic treatment consisted of twice daily injections of tapentadol (10 mg/kg, i.p. at 10:00 am and 6:00 pm) or saline for 4 days starting on the 15th day after nerve ligation in both CCI-ION and CCI-SN rats. Animals were further injected with tapentadol (10 mg/kg i.p.) or saline at 10:00 am the following day (19th day post-surgery), and assessment of allodynia with von Frey filament tests (see below) was made at various times up to 4 hours after this injection. All rats were killed by decapitation 4 hours after the last injection for real-time qRT-PCR determinations of specific mRNAs in ganglia and central tissues (see below).
Rats were placed individually in small (35×20×15 cm) plastic cages for a 2 h habituation period. Before any stimulation session, rats freely explored the observation cage and the testing environments for 2 h. Then mechanical sensitivity was determined with a graded series of […] von Frey filaments (Bioseb, Bordeaux, France). The filaments produced a bending force of 0.40, 0.60, 1.00, 2.00, 4.00, 6.00, 8.00, 10.00 and 12.00 g, respectively. The stimuli were applied within the ION territory (vibrissae pad) three times on the nerve-injured side and then on the contralateral side for a total of 6 applications of each filament per rat, always beginning with the filament producing the lowest force. The von Frey filaments were applied at least 3 seconds after the rat had returned to its initial resting state. For each session, the complete series of von Frey filaments was tested in increasing force order. […] The latter responses represented the highest scores in the rank-ordered response scoring system initially described by Vos et al. (1994). Under our own conditions, the mechanical response threshold was determined as the minimal force filament causing at least one among these responses to at least 2 out of the 3 applications in vibrissae territory. […] To avoid nonspecific responses, only these rats were included in the study.

`CC[C@@H](c1cccc(O)c1)[C@@H](C)CN(C)C` [Tapentadol, (−)-(1R,2R)-3-(3-dimethylamino-1-ethyl-2-methyl-propyl)-phenol] was tested, and the “anti-allodynic effect after subchronic pretreatment vs saline pretreatment” value (10 mg/kg i.p. twice daily for four days, challenge 10 mg/kg i.p. day 19) was “had the same characteristics (amplitude, duration)”, the “increase in pressure threshold value compared to saline-treated CCI-ION rats” value (acute 1 mg/kg i.p., first 45 min) was “up to 6 fold” and the “duration of statistically significant anti-allodynic effect” value (acute 10 mg/kg i.p.) was “at least two hours”. The “pressure threshold values higher than those determined prior to injection” value (acute 10 mg/kg i.p., 30-60 min after injection) was 15-20 fold.
